Data set [1] is described as follows: Pharmacokinetics in control rats after gavage of JYPs. The format is in vivo, Sprague Dawley (SD) rats. As to conditions: for half-life / Tmax / AUC(0-inf) / AUC(0-t) / Cmax / MRT last / MRT inf: male, rat, plasma; for Tmax: po; for MRT last: read-out: MRT(0-t); for MRT inf: read-out: MRT(0-∞). From the text: According to the established method for the analysis of serum biological samples, the pharmacokinetics of various components of rat serum were investigated after the administration of different dosages of JYPs to control rats.
(§1) For the control experiment, healthy male Sprague Dawley (SD) rats of SPF grade ([…] ± 20 g) were purchased from Sipeifu (Beijing) Biotechnology Co., Ltd. (Beijing, China), Animal Quality Certificate No. 110324220102348616. For the ADHD model rats, healthy male SHR rats of SPF grade, weighing 220 ± 20 g, were purchased from SBF (Beijing) Biotechnology Co., Ltd. (Beijing, China), License No. SCXK (Yu) 2019-0010. The animals were accommodated in the Animal Center of Henan University of Traditional Chinese Medicine, which successfully underwent an ethical audit with ethics number DWLL202208003. The animals were bred under controlled conditions at a temperature of 24 °C and a relative humidity of 50 ± 2%. Before the experiment, the animals abstained from eating for 12 h and had unrestricted access to water. The feeding and experimental research conducted on the experimental animals adhered to the laws outlined in the Management of Experimental Animals in Henan Province.
(§2) JYPs were ground into a fine powder and sieved through 60-mesh sieves; then, 20 g of fine JYP powder was taken, having been weighed precisely. A precise volume of 50 mL of pure water was added and mixed well to prepare a 0.4 g/mL suspension solution of JYPs, which was then stored in the refrigerator at 4 °C.
(§3) This study involved 24 healthy male SD rats with a body mass of 220 ± 20 g and 24 healthy male ADHD rats with a body mass of 220 ± 20 g. Subjects abstained from food for a duration of 12 h before the experiment and consumed water without restriction. Both kinds of rats were randomly divided into four groups: a blank group, given an equal dose of water intragastrically, and 3 different administration groups: rats given the equivalent human dose of JYPs by gavage in doses of 1.080 g/kg/d, 2.160 g/kg/d, and 4.320 g/kg/d. Tail vein blood was collected at 0.083, 0.25, 0.5, 0.75, 1, 1.5, 2, 3, 4, 6, 8, 12, 18, and 24 h after dosing. About 0.5 mL of blood was collected in sodium heparin centrifugal tubes, then centrifuged at 4 °C for 10 min at a speed of 3500r/min. We took the upper layer and placed it at −80 °C for preservation.
(§4) We took 200 μL of plasma, added 600 μL of methanol solution and 50 μL of internal standard (100 ng/mL), and subjected it to shaking for 5 min, followed by centrifugation at 4 °C at 12,000 r/min for 10 min. The supernatant was collected and allowed to dry, then reconstituted with 50 μL of 50% methanol and centrifuged at 4 °C at 14,000 r/min for a further 10 min. The supernatant after this process was taken as the test solution. A volume of 5 μL was used for UPLC-MS analysis. The drug concentration in plasma was calculated with the aid of the internal standard.
Chromatographic conditions: Hypersil GOLD (100 × 2.1 mm, 1.9 μm) column; column temperature 35 °C; mobile phase acetonitrile (A)/0.1% formic acid aqueous solution (B); gradient elution; gradient elution program: 0–0.5 min (95% B–95% B), 0.5–8 min (95% B–50% B), 8–14 min (50% B–20% B), 14–20 min (20% B–5% B), 20–22 min (5% B–5% B), 22–25 min (95% B–95% B); flow rate 0.2 mL/min; injection volume 5 μL.

The nature of data set [2]: Pharmacokinetics in ADHD model rats after gavage of JYPs. The format is in vivo, SHR rats (ADHD model). As to conditions: for peak time / half-life: ADHD model rats, oral JYPs; for removed within 12 h: ADHD rats (as printed, in the control-group section); for half-life: male, SHR, plasma. The method, then:
Based on the established analytical method for plasma samples, a pharmacokinetic study was conducted on 13 constituents in the plasma of ADHD model rats after gavage of JYPs (Figure 3). The linearity of ln(AUC0-t)–ln(dose) and ln(Cmax)–ln(dose) was analyzed in the same way.
as §1, §2, §3, §4
Chromatographic conditions: Hypersil GOLD (100 × 2.1 mm, 1.9 μm) column; column temperature 35 °C; mobile phase acetonitrile (A)/0.1% formic acid aqueous solution (B); gradient elution; gradient elution program: 0–0.5 min (95% B–95% B), 0.5–8 min (95% B–50% B), 8–14 min (50% B–20% B), 14–20 min (20% B–5% B), 20–22 min (5% B–5% B), 22–25 min (95% B–95% B); flow rate 0.2 mL/min; injection volume 5 μL. The ion source was electrospray ionization (ESI), with positive and negative ion mode spray voltages of 3.50 and 3.0 kV, an ion transfer tube temperature of 300 °C, nitrogen as the carrier gas, a sheath gas pressure of 35 arb, an auxiliary gas pressure of 8 arb, and an auxiliary heater temperature of 275 °C.

Where [3] appears, read: Sprague Dawley, oral JYPs, range over compounds and doses, read-out: half-life (t1/2).
Setting [4] is: Sprague Dawley, oral JYPs, read-out: peak time (Tmax).
Setting [5] is: Sprague-Dawley, 1.08 g/kg/day, oral JYPs low dose 1.080 g/kg/d (1st of 3 values).
[6] abbreviates: Sprague-Dawley, 2.16 g/kg/day, oral JYPs medium dose 2.160 g/kg/d (2nd of 3 values).
Setting [7] is: Sprague-Dawley, 4.32 g/kg/day, oral JYPs high dose 4.320 g/kg/d (3rd of 3 values).
Where [8] appears, read: oral JYPs high dose 4.320 g/kg/d (3rd of 3 values).
Where [9] appears, read: oral JYPs low dose 1.080 g/kg/d (1st of 3 values).
[10] abbreviates: oral JYPs medium dose 2.160 g/kg/d (2nd of 3 values).

Read-outs that look alike come from different tables or passages of the source. Bounds are passed on as bounds.

These results are taken from publication PMC10976160, “Comparative Pharmacokinetics Research of 13 Bioactive Components of Jieyu Pills in Control and Attention Deficit Hyperactivity Disorder Model Rats Based on UPLC-Orbitrap Fusion MS” (Molecules, 2024).

Consider `CCCC=C1OC(=O)C2=C1CCC1C3C=C4C(=O)OC(=CCCC)C4(CC3)C21` (stereo not shown) [Levistilide A], for which the half-life in data set [1] (setting [3]) was 14.4 to 24 h; in data set [1] (Sprague-Dawley, 1.08 g/kg/day, oral JYPs low dose 1.080 g/kg/d (1st of 3 values), read-out: t1/2 (converted)) it was 14.4 ± 4.36 h; in data set [1] (Sprague-Dawley, 2.16 g/kg/day, oral JYPs medium dose 2.160 g/kg/d (2nd of 3 values), read-out: t1/2 (converted)), 16.4 ± 7.3 h; in data set [1] (Sprague-Dawley, 4.32 g/kg/day, oral JYPs high dose 4.320 g/kg/d (3rd of 3 values), read-out: t1/2 (converted)) it was 22.1 ± 26.9 h. In addition, the time to peak (Tmax) is below 2 h in data set [1] (setting [4]); 1.17 ± 0.41 h in data set [1] (Sprague-Dawley, 1.08 g/kg/day, oral JYPs low dose 1.080 g/kg/d (1st of 3 values), read-out: Tmax); 0.92 ± 0.13 h in data set [1] (Sprague-Dawley, 2.16 g/kg/day, oral JYPs medium dose 2.160 g/kg/d (2nd of 3 values), read-out: Tmax); 1.67 ± 0.52 h in data set [1] (Sprague-Dawley, 4.32 g/kg/day, oral JYPs high dose 4.320 g/kg/d (3rd of 3 values), read-out: Tmax). Besides, the AUC(0-inf) in data set [1] (setting [5]) stood at 25.2 ± 7.16 ng·h/mL; in data set [1] (setting [6]) it was 34.2 ± 5.08 ng·h/mL; in data set [1] (setting [7]) it was 59.8 ± 23.1 ng·h/mL. In addition, the values for the AUC(0-t) in data set [1] (setting [5]), in data set [1] (setting [6]) and in data set [1] (setting [7]) were 12.9 ± 4.96 ng·h/mL, 21.5 ± 2.97 ng·h/mL and 36.7 ± 11.3 ng·h/mL, respectively. For the same compound, the Cmax in data set [1] (setting [5]) is 1.79 ± 0.66 ng/mL; in data set [1] (setting [6]) it was 2.86 ± 0.52 ng/mL; in data set [1] (setting [7]), 4.6 ± 2.01 ng/mL. Besides, the MRT last stood at 9.51 ± 1.01 h in data set [1] (setting [5]), 9.23 ± 0.46 h in data set [1] (setting [6]) and 8.92 ± 1.16 h in data set [1] (setting [7]). The results for the MRT inf in data set [1] (setting [5]), in data set [1] (setting [6]) and in data set [1] (setting [7]) were 22.9 ± 7.04 h, 24.1 ± 8.96 h and 31.2 ± 38.1 h, respectively. Further, the “AUMC(0-t)” value in data set [1] (setting [8]) was 323.93± 97.01 ng/mL*(h)²; in data set [1] (setting [9]), 150.01± 45.26 ng/mL*(h)²; in data set [1] (setting [10]) it was 197.79±26.58 ng/mL*(h)². In addition, the results for the “AUMC(0-ꝏ)” value in data set [1] (setting [8]), in data set [1] (setting [9]) and in data set [1] (setting [10]) were 2493.49± 4004.18 ng/mL*(h)², 584.44± 254.39 ng/mL*(h)² and 849.62± 407.65 ng/mL*(h)², respectively. The Clearances in data set [1] (setting [8]) is 1455.57 ± 663.81 mL/h; in data set [1] (setting [9]) it was 794.02 ± 199.77 mL/h; in data set [1] (setting [10]), 1123.37 ± 161.30 mL/h. The figures for the Vss in data set [1] (setting [8]), in data set [1] (setting [9]) and in data set [1] (setting [10]) were 33463.62 ± 24837.03 mL, 17878.07 ± 6212.70 mL and 26341.48 ± 7666.95 mL, respectively.

Regarding `CC12CC(O)C3CC1(OC1OC(CO)C(O)C(O)C1O)C3(COC(=O)c1ccccc1)C(=O)O2` (stereo not shown) [Albiflorin], in data set [2], the peak time result is recorded as “less than 1 h” and the “removed within 12 h” value was “approximately 80%”. Further, in data set [2] (high-dose group), the “Tmax, model rats compared with control rats” value is on record as “significantly shorter”. Also, the “Cmax, model rats compared with control rats” value in data set [2] (middle- and high-dose administration groups) was “significantly greater”.

For the compound `O=C1C[C@@H](c2ccc(O[C@@H]3O[C@H](CO)[C@@H](O)[C@H](O)[C@H]3O)cc2)Oc2cc(O)ccc21` [Liquiritin], the peak time entry in data set [2] is listed as “less than 1 h”. The half-life in data set [1] (setting [3]) lay within 9.53 to 16.8 h. In data set [1] (setting [4]), the Tmax was below 1 h.

In the case of `O=C1C[C@@H](c2ccc(O)cc2)Oc2cc(O)ccc21` [Liquiritigenin], the peak time result in data set [2] is listed as “less than 1 h”. The “AUC(0-t), ADHD rats compared with control rats” value in data set [2] (all dosages) is reported as “significantly lower”. The half-life in data set [1] (setting [3]) lay within 9.53 to 16.8 h. In addition, the time of peak concentration (Tmax) in data set [1] (setting [4]) was below 1 h.

For `C=C(C)[C@@H]1CC=C2C(=CC[C@]3(C)[C@@H]([C@@H](CCC=C(C)C)C(=O)O)[C@H](O)C[C@@]23C)[C@@]1(C)CCC(=O)O` [Poricoic acid B], the peak time entry in data set [2] is on record as “less than 4 h”. Also, the half-life in data set [2] (rat) is below 10.3 h; in data set [1] (setting [3]), 7.61 to 12.2 h. Moreover, the “t1/2, pathological condition compared with control rats” value in data set [2] (rat, in vivo) is given as “shorter”. The Tmax in data set [1] (setting [4]) is below 4 h.

`COc1cc(/C=C/C(=O)O)ccc1O` [Ferulic acid]: in data set [1] (setting [3]), the half-life is 9.53 to 16.8 h. Further, in data set [1] (setting [4]), the time to peak (Tmax) is below 1 h.

For `C[C@@]12C[C@@]3(O)O[C@@H](O1)[C@]1(COC(=O)c4ccccc4)[C@H]3C[C@@]12O[C@@H]1O[C@H](CO)[C@@H](O)[C@H](O)[C@H]1O` [Paeoniflorin], in data set [2], the peak time entry is given as “less than 1 h” and the “removed within 12 h” value is “approximately 80%”. Also, the Tmax in data set [1] (setting [4]) was below 1 h.

In the case of `C=C(CC[C@@H](C(=O)O)[C@H]1[C@H](O)C[C@@]2(C)C3=CC[C@@H](C(=C)C)[C@](C)(CCC(=O)O)C3=CC[C@]12C)C(C)C` [Poricoic acid A], the peak time entry in data set [2] was “less than 4 h”. Moreover, the half-life in data set [2] (rat) is below 10.3 h; in data set [1] (setting [3]) it was 7.61 to 12.2 h. For the same compound, the “Cmax, ADHD rats compared with control rats” value in data set [2] (rat, in vivo) is given as “significantly higher”. Further, the Tmax in data set [1] (setting [4]) is below 4 h.

Broadly, the Tmax is the time at which the peak concentration occurs. As usually defined, the AUC(0-inf) is total exposure, with the tail of the curve extrapolated. Low values mean less exposure, high ones more exposure. By AUC(0-t) is commonly meant the area under the concentration-time curve up to a stated or last time point. By Cmax is commonly meant the peak of the concentration-time curve.
